The results in this text go back to PMC10298626 (International Journal of Molecular Sciences, 2023).

The viability is a read-out of living cells in per cent, often relative to untreated cells.

One data set has as its system JNK. Nature of the data set: LPS-induced phosphorylation of JNK (immunoblotting) in RAW264.7 cells. In kind it is cell-based, Mouse. Conditions: 20, 40, and 80 μM pretreatment 2 h; LPS 500 ng/mL 30 min. The method, then:
(§1) RAW264.7 cells were seeded into 6-well plates (2 × 10^6 cells/well) and incubated for 24 h. The cells were incubated with 20, 40, and 80 μM of coumarin derivative 2 for 2 h, and then LPS (500 ng/mL) was added for 30 min (for phosphorylation of ERK, JNK, p38, and p65) and 24 h (for protein expression of iNOS).
(§2) The cells were washed with PBS and lysed with radioimmunoprecipitation assay buffer containing 1 mM dithiothreitol (Wako, Tokyo, Japan), phosphatase inhibitor cocktail, 1 mM phenylmethylsulfonylfluoride, 1 mM sodium orthovanadate (Sigma), and 10 mM β-glycerophosphate (Sigma). The extracted proteins were centrifuged at 13,000× g rpm, separated via sodium dodecyl sulfate polyacrylamide gel electrophoresis, and transferred to polyvinylidene fluoride membranes. Nonspecific proteins were blocked by adding 5% skim milk. After blocking, primary antibodies were incubated overnight at 4 °C. After washing with the PBS-T buffer, the secondary antibodies were treated at room temperature for 2 h. For detection, the antibodies were developed with Super Signal® West Femto Substrate (ThermoFisher, Waltham, MN, USA) and analyzed on a Fusion Solo Chemiluminescence System (Vilber Lourmat, Paris, France) ECL detection system.
(§3) Figure 5 Inhibitory effects of coumarin derivative 2 on LPS-induced phosphorylation of MAPKs and NF-κB p65 in RAW264.7 cells. […]

The subject of a further data set is iNOS. Nature of the data set: iNOS protein expression (immunoblotting) in LPS-stimulated RAW264.7 cells. In kind it is cell-based, Mouse. Conditions: 20, 40, and 80 μM pretreatment 2 h; LPS 500 ng/mL 24 h. The method, then:
as §1
as §2, with “Nonspecific proteins were blocked by adding 5% skim milk. After blocking, primary antibodies were incubated overnight at 4 °C. After washing with the PBS-T buffer, the secondary antibodies were treated at room temperature for 2 h.” left out
(§4) Figure 4 Effect of coumarin derivative 2 on iNOS protein expression in LPS-stimulated RAW264.7 cells. […] (c) RAW264.7 cells (2.0 × 10^6 cells/6 cm dish) were pretreated with coumarin derivative 2 (20, 40, and 80 μM) for 2 h and incubated with LPS (500 ng/mL) for 6 h. iNOS mRNA expression levels were measured via a real-time quantitative reverse transcription polymerase chain reaction. […]
For orientation: A western blot detects proteins with antibodies after separation by electrophoresis.

The next data set is described as follows: in vitro. In kind it is cell-based. Conditions: mouse, RAW264.7 cells, then LPS (500 ng/mL) 20 h, read-out: Cell viability, Average (%). The method, then:
To investigate the anti-inflammatory activity of coumarin derivatives, cell viability was analyzed by treating RAW264.7 cells with 23 types of coumarin derivatives at concentrations of 20, 40, and 80 μM for 2 h and with LPS for 20 h.
Mouse macrophage RAW264.7 cells were purchased from the Korea Cell Line Bank (Seoul, Republic of Korea) and cultured in Dulbecco’s Modified Eagle Medium (Corning, NY, USA) containing 10% fetal bovine serum and 1% penicillin/streptomycin at 37 °C and 5% CO2. The medium was changed every 2 days and subcultured when the cells grew > 80%.
EZ-Cytox cell viability assay kit (Dogen, Suwon, Republic of Korea) was used to measure cell viability according to the manufacturer’s instructions. RAW264.7 cells were seeded into a 96-well plate (1 × 10^5 cells/well) and treated with coumarin derivatives at concentrations of 20, 40, and 80 μM. After 2 h, the cells were treated with LPS (500 ng/mL) and cultured for 24 h in a 37 °C, 5% CO2 incubator. The culture supernatant was treated with 10% EZ-Cytox reagent, and a microplate reader was used to measure the absorbance at 450 nm.

Another data set relates to ERK. Nature of the data set: LPS-induced phosphorylation of ERK (immunoblotting) in RAW264.7 cells. In kind it is cell-based, Mouse. Conditions: 20, 40, and 80 μM pretreatment 2 h; LPS 500 ng/mL 30 min. The method, then:
as §1, §2, §3

For a further data set, the system named is NF-κB p65. In words: LPS-induced phosphorylation of NF-κB p65 (immunoblotting) in RAW264.7 cells. In kind it is cell-based, Mouse. Conditions: 20, 40, and 80 μM pretreatment 2 h; LPS 500 ng/mL 30 min. The method, then:
as §1, §2, §3

For a further data set, the system named is TNF-α mRNA. Nature of the data set: TNF-α mRNA expression (qRT-PCR) in LPS-stimulated RAW264.7 cells. In kind it is cell-based, Mouse. Conditions: 20, 40, and 80 μM; 2 h pretreatment, LPS 500 ng/mL 6 h. The method, then:
(§5) RAW264.7 cells were seeded into a 6-well plate (2 × 10^6 cells/well) and cultured for 24 h. The cells were treated with coumarin derivative 2 at 20, 40, and 80 μM and cultured for 2 h and with LPS (500 ng/mL) for 6 h.
(§6) The cells were washed with phosphate-buffered saline (PBS) and lysed with the RNeasy Mini kit (Qiagen, Hilden, Germany) for RNA isolation. RNA was converted to cDNA using the AccuPower reverse transcriptase Premix Kit (Bioneer, Daejeon, Republic of Korea). A Power SYBR Green PCR Master Mix (Applied Biosystems, Waltham, MN, USA) was used to perform polymerase chain reaction amplification. Amplification conditions were selected within the Quant 3 PCR system (Applied Biosystems). The data were normalized to the amount of glyceraldehyde 3-phosphate dehydrogenase.
Figure 3 Effects of coumarin derivative 2 on IL-6 and TNF-α production and mRNA expression in LPS-stimulated RAW264.7 cells. (a) Effect of coumarin derivative 2 on TNF-α and IL-6 production in RAW264.7 cells. The RAW264.7 cells (1 × 10^5/well, 96-well plates) were pretreated with coumarin derivative 2 (20, 40, and 80 μM) for 2 h and incubated with LPS (500 ng/mL) for 20 h. An ELISA kit was used to analyze cell supernatants for TNF-α and IL-6. […] IL-6 and TNF-α mRNA expression levels were measured via a real-time quantitative reverse transcription polymerase chain reaction.

For another data set, the system named is iNOS mRNA. In words: iNOS mRNA expression (qRT-PCR) in LPS-stimulated RAW264.7 cells. In kind it is cell-based, Mouse. Conditions: 20, 40, and 80 μM; 2 h pretreatment, LPS 500 ng/mL 6 h. The method, then: as §5, §6
as §4, with “cells. (a) RAW264.7 cells (2.0 × 10^6 cells/6 cm dish) were pretreated with coumarin derivative 2 (20, 40, and 80 μM) for 2 h and incubated with LPS (500 ng/mL) for 20 h. Whole-cell lysates were then immunoblotted with the iNOS specific antibody.” for “cells.”

In the case of `N#CC1=C(N)Oc2c(c(=O)oc3ccccc23)C1c1cccc(F)c1` (stereo not drawn) [Coumarin derivative 2], the “Phosphorylation of JNK” value with JNK is given as “inhibited”. The “iNOS expression (immunoblot)” value in the data set on iNOS is “inhibited”. In addition, the viability at 22 h, 20 μM in the data set “in vitro” (20 μM for 2 h) is 106%. The viability at 22 h, 40 μM in the data set “in vitro” (40 μM for 2 h) amounted to 97.1%. Besides, the viability at 22 h, 80 μM in “in vitro” (80 μM for 2 h) is 101%. Besides, the “Phosphorylation of ERK” value in the data set on ERK was “inhibited”. The p65 phosphorylation entry in the data set with NF-κB p65 is recorded as “inhibited”. The “TNF-α mRNA expression” value in the data set with TNF-α mRNA is given as “significantly suppressed”. Besides, the “iNOS mRNA expression” value in the data set with iNOS mRNA is listed as “significantly suppressed”.
